Experimental data reported in patent US11590103B2, “Ascorbate in the prevention of statin induced vascular calcification” (priority 2019, dated 2023).

Key:
Assay type in all cases: cell-based
[1] = system: human dermal fibroblasts (DF); test: Expression of osteoblast markers in dermal fibroblasts (immunoassay); settings: 100 mcM ascorbic acid, medium with 5 mM beta-glycerophosphate and 25 mcM forskolin, FIG. 3
Experimental: (§1) Cell viability was monitored with MTT assay.
(§2) For the experiments AoSMC, DF and hFOB cells were seeded in separate 96 well plastic plates at density 25,000 per square cm and grown to confluence for 5-7 days. Tested compounds were added to cells at indicated concentrations for 72 hours in DMEM supplemented with 2% FBS. Cell layers were washed three times with PBS and fixed with 3% formaldehyde in PBS at 4° C. for one hour. Fixed cell layers were washed four times with PBS and treated with 1% BSA/PBS for one hour at RT. Immunoassay for osteogenic markers was done by sequential incubation with primary monoclonal antibodies (R&D Systems) in 1% BSA/PBS for 2 hours followed by 1 hour incubation with secondary goat anti-mouse IgG antibodies labeled with horse radish peroxidase (HRP). Retained peroxidase activity was measured after the last washing cycle (three times with 0.1% BSA/PBS) using TMB peroxidase substrate reagent (Rockland). Optical density was read with plate reader (Molecular Devices) at 450 nm and expressed as percentage of control cell samples incubated in unsupplemented 2% FBS/DMEM. To ensure a direct comparison of osteogenic markers expression on different cell types all pcell covered plates were treated identical and simultaneously during immunoassay.

[2] = system: human aortic smooth muscle cells (AoSMC); test: Expression of osteoblast markers in AoSMC (immunoassay); settings: 100 mcM ascorbic acid, medium with 5 mM beta-glycerophosphate and 25 mcM forskolin, FIG. 3
Experimental: as §1, §2

[3] = system: human aortic smooth muscle cells (AoSMC); test: Alkaline phosphatase activity assay in AoSMC; settings: 300 mcM ascorbate, regular growth medium, FIG. 1
Experimental: AoSMC were plated in 96 well plates and grown to confluent layer. Cells were incubated with ascorbic acid in growth medium for three days. Cells were washed with phosphate buffered saline (PBS) and supplemented with 50 mcl/well 25 mcg/ml 4-MUP (fluorescent ALP substrate, Sigma) in alkaline buffer (Sigma)/1% Triton X100 for 1 h at room temperature. Fluorescence was measured at 360/450 nm.

[4] = system: human aortic smooth muscle cells (AoSMC); test: Calcium accumulation in extracellular matrix of cultured AoSMC
Experimental: as §1
AoSMC were seeded on fibronectin covered plastic plates at density 25,000 per square cm and grown to confluence for 5-7 days. […] J Cardiovasc Pharmacol 2008; 52:55-65. After four washes with PBS, ECM layers were solubilized by incubation in 0.6N HCl for 48 hours at 37° C. Calcium content in solubilized samples was measured with TECO Ca assay according to manufacturer's protocol.

[5] = 100 mcM ascorbate concomitant with simvastatin, without forskolin, FIG. 2A

Compound: O=C1O[C@H]([C@@H](O)CO)C(O)=C1O [ascorbic acid, L-ascorbic acid]
- expression of all tested osteogenic markers [1]: significantly reduced
- expression of all tested osteogenic markers [2]: significantly reduced
- decrease of cellular alkaline phosphatase activity [3]: 80%
- decrease of calcium accumulation ([4]; 100 mcM ascorbate added to 1 mM mevastatin, with 25 mcM forskolin, FIG. 2B): 19%
- accumulated calcium [4, 5]: 0.2 mcg/well
- decrease of accumulated calcium [4, 5]: 54%
- decrease of extracellular Ca accumulation by AoSMC ([4]; 300 mcM ascorbate, regular growth medium, FIG. 1): 20%

Compound: CC[C@H](C)C(=O)O[C@H]1CCC=C2C=C[C@H](C)[C@H](CC[C@@H]3C[C@@H](O)CC(=O)O3)[C@H]21 [mevastatin]
- calcium accumulation ([4]; 1 mM mevastatin, with 25 mcM forskolin, FIG. 2B, control 1.35 mcg/well): 1.8 mcg/well

Compound: CCC(C)(C)C(=O)O[C@H]1C[C@@H](C)C=C2C=C[C@H](C)[C@H](CC[C@@H]3C[C@@H](O)CC(=O)O3)[C@H]21 [simvastatin]
- increase of calcium accumulation in AoSMC layers ([4]; in the presence of simvastatin, without forskolin, FIG. 2A): 23%
